Measured values taken from publication PMC6254286, “Quantitative Structure − Antiprotozoal Activity Relationships of Sesquiterpene Lactones ^†” (Molecules, 2009).
Like-named read-outs stand apart in the source and are kept apart here.

Tests used:
[1] = system: K1 strain of P. falciparum; experiment: Antiplasmodial [3H]-hypoxanthine incorporation assay; type: cell-based, Plasmodium falciparum; conditions: Plasmodium falciparum
Procedure: Plasmodium falciparum. Antiplasmodial activity was determined using the K1 strain of P. falciparum (resistant to chloroquine and pyrimethamine). A modification of the [3H]-hypoxanthine incorporation assay was used. Briefly, infected human red blood cells (final parasitaemia and haematocrit were 0.3% and 1.25%, respectively) in RPMI 1640 medium with 5% Albumax were exposed to serial drug dilutions in microtiter plates. After 48 hours of incubation at 37°C in a reduced oxygen atmosphere, 0.5 mCi 3H-hypoxanthine was added to each well. Cultures were incubated for a further 24 h before they were harvested onto glass-fiber filters and washed with distilled water. The radioactivity was counted using a BetaplateTM liquid scintillation counter (Wallac, Zurich, Switzerland). […] From the sigmoidal inhibition curves IC50 values were calculated. Assays were run in duplicate and repeated once.

[2] = system: Trypanosoma brucei rhodesiense STIB 900; experiment: In vitro activity against T. brucei rhodesiense bloodstream forms (Alamar blue); type: cell-based; conditions: for IC50: mean of two independent measurements; for selectivity index (SI) with respect to Tbr: ratio of cytotoxic IC50 (L6) over IC50 against Tbr
Procedure: (§1) Trypanosoma brucei rhodesiense and cytotoxicity against L6 cells. Minimum Essential Medium with Earle’s salts (50 µL) supplemented with 0.2 mM 2-mercapto-ethanol, 1 mM Na-pyruvate and 15% heat-inactivated horse serum was added to each well of a 96-well microtiter plate. […] Then 10^4 bloodstream forms of Trypanosoma brucei rhodesiense STIB 900 in 50 µL of medium were added to each well and the plate incubated at 37°C under a 5% CO2 atmosphere for 72 hours. […] The plate was then read in a Spectramax Gemini XS microplate fluorometer (Molecular Devices Corporation, Sunnyvale, CA, USA) using an excitation wavelength of 536 nm and emission wavelength of 588 nm. Fluorescence development was measured and expressed as percentage of the control. Data were transferred into the graphic programme Softmax Pro (Molecular Devices) which calculated IC50 values. Cytotoxicity was assessed using a similar protocol and rat skeletal myoblasts (L6 cells). […] All following steps were according to the T. b. rhodesiense protocol.

[3] = system: Leishmania donovani amastigotes (strain MHOM/ET/67/L82); experiment: L. donovani axenic amastigote assay (resazurin); type: cell-based; conditions: for IC50: Leishmania donovani
Procedure: Leishmania donovani (axenic amastigote assay). […] Serial drug dilutions in duplicates were prepared covering a range from 30 to 0.041 µg/mL. […] The compounds used as positive controls in the various bioassays (see Table 1) were of commercial origin, with the exception of melarsoprol, which was a gift from WHO. Their purity (generally > 95%) was specified by the manufacturers.

[4] = system: T. cruzi Tulahuen strain C2C4; experiment: In vitro activity against T. cruzi in L-6 host cells (beta-galactosidase/CPRG); type: cell-based, Trypanosoma cruzi; conditions: Trypanosoma cruzi, read-out: IC50 T. cruzi (Tcr)
Procedure: Trypanosoma cruzi. Rat skeletal myoblasts (L-6 cells) were seeded in 96-well microtiter plates at 2,000 cells/well in 100 µL RPMI 1640 medium with 10% FBS (fetal bovine serum) and 2 mM L-glutamine. After 24 hours the medium was removed and replaced by 100 µL per well containing 5,000 trypomastigote forms of T. cruzi Tulahuen strain C2C4 containing the β-galactosidase (Lac Z) gene. Fortyeight hours later the medium was removed from the wells and replaced by […] fresh medium with or without a serial drug dilution. Seven 3-fold dilutions were used covering a range from […]. Each drug was tested in duplicate. After 96 hours of incubation the plates were inspected under an inverted microscope to assure growth of the controls and sterility. Then the substrate CPRG/ Nonidet (50 µL) was added to all wells. A colour reaction developed within 2-6 hours and could be read photometrically at 540 nm.

[5] = Cytotoxicity against L6 cells (Alamar blue); conditions: rat; for IC50: IC50 Cytotoxicity (L6), L6 rat skeletal myoblasts, 72 h, mean of two independent measurements
Procedure: as §1

[6] = K1, K1 strain (resistant to chloroquine and pyrimethamine), mean of two independent measurements, read-out: IC50 P. falciparum (Pfc)
[7] = Trypanosoma brucei, 72 h, bloodstream forms STIB 900, 72 h, read-out: IC50 T. brucei rhodes. (Tbr)
[8] = 72 h, pH 5.4, axenic amastigotes, pH 5.4, 72 h, mean of two independent measurements, read-out: IC50 L. donovani (Ldon)
[9] = TULAHUEN, L6, 96 h, Tulahuen C2C4 in L-6 cells, 96 h, mean of two independent measurements
[10] = L6 cells (rat skeletal myoblasts)
[11] = Trypanosoma brucei, 72 h, read-out: IC50 T. brucei rhodes. (Tbr), bloodstream forms STIB 900, 72 h
[12] = 72 h, pH 5.4, read-out: IC50 L. donovani (Ldon)
[13] = K1, read-out: IC50 P. falciparum (Pfc)
[14] = bloodstream forms STIB 900, 72 h, read-out: IC50 T. brucei rhodes. (Tbr)

SMILES: C=C1C(=O)OC2CC(C)C3=CC(=O)OC3CC12 (stereo not shown) [Compound 24]
- IC50 [1, 6]: > 20 µM
- IC50 [2, 7]: 8.21 µM
- selectivity index (SI) with respect to Tbr [2]: 52
- IC50 [3, 8]: 27.1 µM
- selectivity index (SI) with respect to Ldon ([3]; ratio of cytotoxic IC50 (L6) over IC50 against Ldon): 15
- IC50 [4, 9]: > 120 µM
- IC50 at 72 h [5, 10]: 427 µM

SMILES: C=C1C(=O)O[C@@H]2C[C@@H](C)[C@@H]3C=CC(=O)[C@@]3(C)[C@@H](O)[C@H]12 [Compound 1, helenalin]
- IC50 [2, 11]: < 0.1 µM
- IC50 ([2]; read-out: IC50 T. brucei rhodes. (Tbr), bloodstream forms STIB 900, 72 h): 0.052 µM
- IC50 ([2]; read-out: IC50 T. brucei rhodes. (Tbr), bloodstream forms STIB 900, 72 h, listed as helenalin): 0.05 to 0.1 µM
- IC50 ([4]; TULAHUEN, L6, 96 h): 0.695 µM
- IC50 at 72 h [5]: 0.992 µM

SMILES: C=C1C(=O)OC2C=C(C)C(O)CC3OC3(COC(C)=O)CC(OC(=O)C(C)=CC)C12 (stereo not shown) [Compound 40]
- IC50 [1, 6]: 6.64 µM
- IC50 [2, 7]: 0.698 µM
- IC50 [3, 8]: 17.1 µM
- IC50 [4, 9]: 11.8 µM
- IC50 [5]: 6.67 µM

SMILES: C=C1C(=O)O[C@H]2[C@H]1CC/C(C)=C/CC[C@@]1(C)O[C@@H]21 [Compound 34, parthenolide]
- IC50 [1, 6]: 11.9 µM
- IC50 [2, 7]: 0.388 µM
- IC50 [3, 8]: 3.56 µM
- IC50 [4, 9]: 10.7 µM
- IC50 at 72 h [5, 10]: 7.24 µM

SMILES: CC(C)CC(=O)OC1C2C(CC(C)C3C=CC(=O)C31C)OC(=O)C2C (stereo not shown) [Compound 7]
- IC50 [1, 6]: 1.6 µM
- IC50 [2, 7]: 0.911 µM
- IC50 [3, 8]: 1.48 µM
- IC50 [4, 9]: 3.53 µM
- IC50 at 72 h [5, 10]: 4.58 µM

SMILES: CCCCCCCCCCCCCCCCOP(=O)([O-])OCC[N+](C)(C)C [miltefosine, reference compound]
- IC50 [3, 8]: 0.27 µM

SMILES: C=C1C(=O)OC2CC(C)C3C=CC(=O)C3(C)C(O)C12 (stereo not shown) [Compound 8]
- IC50 [2, 11]: 0.319 µM
- IC50 [3, 12]: > 4 µM
- IC50 ([4]; TULAHUEN, L6, 96 h): 1.87 µM
- IC50 at 72 h [5]: 2.44 µM

SMILES: Nc1nc(N)nc(Nc2ccc([As]3SCC(CO)S3)cc2)n1 (stereo not shown) [melarsoprol, reference compound]
- IC50 [2, 11]: 0.008 µM

SMILES: C=C1C(=O)OC2CC(C)C3C(OC(C)=O)CC(O)C3(C)C(O)C12 (stereo not shown) [Compound 9]
- IC50 [2, 7]: 9.28 µM
- IC50 [4, 9]: 45.8 µM
- IC50 [5]: 12.3 µM

SMILES: C=C1C(=O)OC2C=C(C)C(OC(C)=O)CC3OC3(C)CC(OC(=O)C(C)=CC)C12 (stereo not shown) [Compound 39]
- IC50 [1, 13]: 8.07 µM
- IC50 [2, 11]: 0.804 µM
- IC50 [3, 12]: 30.1 µM
- IC50 ([4]; TULAHUEN, L6, 96 h): 17.6 µM
- IC50 at 72 h [5]: 10.1 µM

SMILES: C=C1C(=O)OC2CC(C)C3C(OC(C)=O)CC(O)C3(C)C(OC(C)=O)C12 (stereo not shown) [Compound 15]
- IC50 [1, 6]: 5.98 µM
- IC50 [2, 7]: 3.96 µM
- IC50 [3, 8]: 8.68 µM
- IC50 [4, 9]: 16.3 µM
- IC50 [5]: 7.28 µM

SMILES: C=C1C(=O)OC2CC(C)C(CCC(C)=O)=CCC12 (stereo not shown) [Compound 17]
- IC50 [1, 6]: > 20 µM
- IC50 [2, 7]: 62.1 µM
- IC50 [3, 8]: 23.8 µM
- IC50 [4, 9]: > 120 µM
- IC50 at 72 h [5, 10]: 179 µM

SMILES: C=C1C(=O)OC2CC(C)C3C=CC(=O)C3(C)C(OC(C)=O)C12 (stereo not shown) [Compound 2]
- IC50 [1, 13]: 0.329 µM
- IC50 [2, 7]: < 0.1 µM
- IC50 [2, 14]: 0.063 µM
- selectivity index (SI) with respect to Tbr [2]: 13
- IC50 ([3]; axenic amastigotes, pH 5.4, 72 h, mean of two independent measurements, read-out: IC50 L. donovani (Ldon)): 0.446 µM
- IC50 ([4]; L6, Tulahuen C2C4 in L-6 cells, 96 h, mean of two independent measurements): 0.538 µM
- IC50 [5]: 0.809 µM

SMILES: C=C1C(=O)OC2CC3(C)CC(OC(C)=O)CC(=C)C3CC12 (stereo not shown) [Compound 27]
- IC50 [1, 6]: 9.21 µM
- IC50 [2, 7]: 10.7 µM
- IC50 [3, 8]: 11.8 µM
- IC50 [4, 9]: 24.3 µM
- IC50 at 72 h [5, 10]: 8.91 µM

SMILES: C=C1C(=O)OC2C1CCC1(C)C(O)CCC(=C)C21 (stereo not shown) [Compound 31]
- IC50 [1, 6]: 12.1 µM
- IC50 [2, 14]: 17.8 µM
- IC50 [3, 8]: 6.01 µM
- IC50 [4, 9]: 28.9 µM
- IC50 [5]: 33.2 µM

SMILES: C=C1C(=O)OC2CC(C)C3(O)C=C(C(C)=O)C4(CC3CC12)C(=O)OC1CC(C)C2(C=CC(C)=O)OC2CC14 (stereo not shown) [Compound 22]
- IC50 [1, 6]: 6.53 µM
- IC50 [2, 7]: 1.29 µM
- IC50 [3, 8]: 26.9 µM
- IC50 [4, 9]: 95.4 µM
- IC50 at 72 h [5, 10]: 13.3 µM
